The source of these data is patent publication US11623919B2, “Heterocyclic P2X7 antagonists” (AXXAM S.P.A., priority 2017, dated 2023).

A value given as a limit tells only on which side of the number the result lay.

What all share (experiment): Screen Quest Fluo-8 No Wash Calcium Assay (Bz-ATP evoked Ca2+ influx, FLIPR)
What all share (format): cell-based

In experiment [1] the target is T1, P2X7 receptor (Rattus norvegicus, UniProt Q64663).
T1 construct: rP2X7 (IC50; nM); other: rP2X7; HEK-293 cells stably transfected with P2X7 receptor, Bz-ATP at EC80, Fluo-8 NW; potency
T1 sequence (Q64663 1-595): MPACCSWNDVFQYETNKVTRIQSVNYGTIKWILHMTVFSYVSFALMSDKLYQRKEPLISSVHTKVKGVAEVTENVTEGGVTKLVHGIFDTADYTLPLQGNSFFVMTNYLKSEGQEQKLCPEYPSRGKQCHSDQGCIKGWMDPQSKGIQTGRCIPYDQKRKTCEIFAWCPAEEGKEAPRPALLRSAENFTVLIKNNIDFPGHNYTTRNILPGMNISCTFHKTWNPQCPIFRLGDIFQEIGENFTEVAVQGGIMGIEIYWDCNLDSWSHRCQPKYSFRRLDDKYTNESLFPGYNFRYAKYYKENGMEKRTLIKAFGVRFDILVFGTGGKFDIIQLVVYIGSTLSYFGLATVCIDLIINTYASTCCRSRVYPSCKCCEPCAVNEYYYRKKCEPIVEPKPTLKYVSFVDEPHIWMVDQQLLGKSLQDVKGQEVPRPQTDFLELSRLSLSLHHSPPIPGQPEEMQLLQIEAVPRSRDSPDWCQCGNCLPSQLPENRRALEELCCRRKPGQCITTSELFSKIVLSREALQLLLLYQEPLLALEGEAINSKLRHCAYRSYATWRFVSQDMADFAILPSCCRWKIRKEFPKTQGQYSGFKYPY
The following applies: rP2X7; HEK-293 cells stably transfected with P2X7 receptor, Bz-ATP at EC80, Fluo-8 NW; potency ranges A-D. A digest of the protocol:
(§1)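 HEK-293 cells stably expressing P2X7 were loaded with Fluo-8 NW for 1 h at RT, then given compound, and 5 min later Bz-ATP at EC80. Fluorescence was read by FLIPR in low divalent cation buffer (0.3 mM Ca2+, 0 mM Mg2+). IC50 came from percent inhibition relative to reference antagonist A438079.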

The target in experiment [2] is T2, P2X7 receptor (Mus musculus, UniProt Q9Z1M0).
T2 construct: mP2X7 (IC50; nM); other: mP2X7; HEK-293 cells stably transfected with P2X7 receptor, Bz-ATP at EC80, Fluo-8 NW; potency
T2 sequence (Q9Z1M0 1-595): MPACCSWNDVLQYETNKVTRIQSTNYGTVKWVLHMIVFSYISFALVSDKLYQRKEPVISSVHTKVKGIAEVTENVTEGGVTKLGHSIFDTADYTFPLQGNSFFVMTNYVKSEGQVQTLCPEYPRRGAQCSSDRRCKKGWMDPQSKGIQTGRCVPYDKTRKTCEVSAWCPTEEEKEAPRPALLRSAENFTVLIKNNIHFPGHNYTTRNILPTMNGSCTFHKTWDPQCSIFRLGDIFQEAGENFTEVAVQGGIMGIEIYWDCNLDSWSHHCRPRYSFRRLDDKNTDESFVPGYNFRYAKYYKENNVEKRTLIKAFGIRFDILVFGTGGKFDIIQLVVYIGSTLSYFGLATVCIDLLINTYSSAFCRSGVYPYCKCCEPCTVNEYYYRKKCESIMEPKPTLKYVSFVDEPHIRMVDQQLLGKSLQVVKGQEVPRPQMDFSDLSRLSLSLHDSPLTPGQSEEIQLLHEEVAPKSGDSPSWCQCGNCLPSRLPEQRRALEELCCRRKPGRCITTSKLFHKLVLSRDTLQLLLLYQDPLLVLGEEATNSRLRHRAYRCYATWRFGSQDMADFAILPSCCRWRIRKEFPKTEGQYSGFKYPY
The following applies: mP2X7; HEK-293 cells stably transfected with P2X7 receptor, Bz-ATP at EC80, Fluo-8 NW; potency ranges A-D. A digest of the protocol: as §1

The target in experiment [3] is T3, P2X7 receptor (Homo sapiens, UniProt Q99572).
T3 sequence (Q99572 1-595): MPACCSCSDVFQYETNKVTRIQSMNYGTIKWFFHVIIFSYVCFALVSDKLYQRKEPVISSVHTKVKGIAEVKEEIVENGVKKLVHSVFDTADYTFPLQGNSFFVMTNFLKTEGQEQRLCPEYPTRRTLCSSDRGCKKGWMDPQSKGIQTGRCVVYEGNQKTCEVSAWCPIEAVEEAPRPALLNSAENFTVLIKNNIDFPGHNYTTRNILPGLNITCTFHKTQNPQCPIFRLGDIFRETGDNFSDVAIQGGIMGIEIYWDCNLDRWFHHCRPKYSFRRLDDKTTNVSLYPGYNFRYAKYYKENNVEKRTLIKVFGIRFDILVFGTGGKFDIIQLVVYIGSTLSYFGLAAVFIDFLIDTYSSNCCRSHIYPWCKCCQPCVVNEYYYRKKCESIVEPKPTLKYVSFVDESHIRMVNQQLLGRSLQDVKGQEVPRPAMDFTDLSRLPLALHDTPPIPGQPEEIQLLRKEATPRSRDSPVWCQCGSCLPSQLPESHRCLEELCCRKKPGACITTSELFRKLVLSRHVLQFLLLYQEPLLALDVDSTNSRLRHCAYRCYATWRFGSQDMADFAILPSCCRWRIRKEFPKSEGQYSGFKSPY
Details: hP2X7 (IC50; nM); other: hP2X7; HEK-293 cells stably transfected with P2X7 receptor, Bz-ATP at EC80, Fluo-8 NW; potency. The following applies: hP2X7; HEK-293 cells stably transfected with P2X7 receptor, Bz-ATP at EC80, Fluo-8 NW; potency ranges A-D. A digest of the protocol:
as §1

In general, IC50 refers to the midpoint of a concentration-inhibition curve. For `Cc1ncccc1Cc1noc(=O)n1Cc1c(F)cccc1Cl` [Example 217, 4-[(2-chloro-6-fluorophenyl)methyl]-3-[(2-methylpyridin-3-yl)methyl]-4,5-dihydro-1,2,4-oxadiazol-5-one], the 50% inhibitory concentration (IC50) in experiment [1], in experiment [2] and in experiment [3] was over 10000 nM throughout.
In the case of `Cc1ncccc1Cc1noc(=O)n1CC1CCCCC1` [Example 218, 4-(cyclohexylmethyl)-3-[(2-methylpyridin-3-yl)methyl]-4,5-dihydro-1,2,4-oxadiazol-5-one], the IC50 in experiment [1] was 200 to 1000 nM; in experiment [2], 1000 to 10000 nM; in experiment [3] it was 200 to 1000 nM.
For `Cc1ncccc1Cc1noc(=O)n1CC1CCC(F)(F)CC1` [Example 219, 4-[(4,4-difluorocyclohexyl)methyl]-3-[(2-methylpyridin-3-yl)methyl]-4,5-dihydro-1,2,4-oxadiazol-5-one], the concentration for half-maximal inhibition (IC50) fell in the range of 1000 to 10000 nM in experiment [1], 1000 to 10000 nM in experiment [2] and 200 to 1000 nM in experiment [3].
With `O=c1onc(CN2CCC(F)(F)CC2)n1Cc1c(F)cccc1Cl` [Example 220, 4-[(2-chloro-6-fluorophenyl)methyl]-3-[(4,4-difluoropiperidin-1-yl)methyl]-4,5-dihydro-1,2,4-oxadiazol-5-one], the IC50 in experiment [1] is under 200 nM; in experiment [2], 200 to 1000 nM; in experiment [3] it was under 200 nM.
As for `O=c1onc(CN2CCC(F)(F)CC2)n1Cc1ccc(F)cc1` [Example 221, 3-[(4,4-difluoropiperidin-1-yl)methyl]-4-[(4-fluorophenyl)methyl]-4,5-dihydro-1,2,4-oxadiazol-5-one], the IC50 in experiment [1] is 1000 to 10000 nM; in experiment [2], 1000 to 10000 nM; in experiment [3], over 10000 nM.
Turning to `O=c1onc(CN2CCC(F)(F)CC2)n1CC1CCCCC1` [Example 222, 4-(cyclohexylmethyl)-3-[(4,4-difluoropiperidin-1-yl)methyl]-4,5-dihydro-1,2,4-oxadiazol-5-one], the results for the concentration for half-maximal inhibition (IC50) in experiment [1], in experiment [2] and in experiment [3] were 1000 to 10000 nM, 1000 to 10000 nM and over 10000 nM, respectively.
For the compound `O=c1onc(CN2CCC(F)(F)CC2)n1CC1CCC(F)(F)CC1` [Example 223, 4-[(4,4-difluorocyclohexyl)methyl]-3-[(4,4-difluoropiperidin-1-yl)methyl]-4,5-dihydro-1,2,4-oxadiazol-5-one], the IC50 in experiment [1], in experiment [2] and in experiment [3] was over 10000 nM throughout.
In the case of `O=c1onc(CN2CCCC(F)(F)C2)n1Cc1c(F)cccc1Cl` [Example 224, 4-[(2-chloro-6-fluorophenyl)methyl]-3-[(3,3-difluoropiperidin-1-yl)methyl]-4,5-dihydro-1,2,4-oxadiazol-5-one], the IC50 in experiment [1], in experiment [2] and in experiment [3] was 200 to 1000 nM each time.
Consider `O=c1onc(CN2CCCC(F)(F)C2)n1Cc1ccc(F)cc1` [Example 225, 3-[(3,3-difluoropiperidin-1-yl)methyl]-4-[(4-fluorophenyl)methyl]-4,5-dihydro-1,2,4-oxadiazol-5-one], for which the values for the concentration for half-maximal inhibition (IC50) in experiment [1], in experiment [2] and in experiment [3] were 1000 to 10000 nM, over 10000 nM and over 10000 nM, respectively.
Take `CC1CC(F)(F)CCN1Cc1noc(=O)n1Cc1c(F)cccc1Cl` (stereo not drawn) [Example 226, 4-[(2-chloro-6-fluorophenyl)methyl]-3-[(4,4-difluoro-2-methylpiperidin-1-yl)methyl]-4,5-dihydro-1,2,4-oxadiazol-5-one]: the half-maximal inhibitory concentration (IC50) in experiment [1], in experiment [2] and in experiment [3] was under 200 nM throughout.
Turning to `CC1CC(F)(F)CCN1Cc1noc(=O)n1Cc1ccc(F)cc1` (stereo not drawn) [Example 227, 3-[(4,4-difluoro-2-methylpiperidin-1-yl)methyl]-4-[(4-fluorophenyl)methyl]-4,5-dihydro-1,2,4-oxadiazol-5-one], the 50% inhibitory concentration (IC50) in experiment [1] lay in the range of 200 to 1000 nM; in experiment [2], 1000 to 10000 nM; in experiment [3] it was 1000 to 10000 nM.
With `O=c1onc(CN2CCOc3ccccc32)n1Cc1ccc(F)cc1` [Example 228, 3-(3,4-dihydro-2H-1,4-benzoxazin-4-ylmethyl)-4-[(4-fluorophenyl)methyl]-4,5-dihydro-1,2,4-oxadiazol-5-one], the half-maximal inhibitory concentration (IC50) is 200 to 1000 nM in experiment [1], 200 to 1000 nM in experiment [2] and under 200 nM in experiment [3].
Turning to `O=c1onc(CN2CCOc3ccccc32)n1Cc1c(F)cccc1Cl` [Example 229, 4-[(2-chloro-6-fluorophenyl)methyl]-3-(3,4-dihydro-2H-1,4-benzoxazin-4-ylmethyl)-4,5-dihydro-1,2,4-oxadiazol-5-one], the IC50 in experiment [1], in experiment [2] and in experiment [3] was 1000 to 10000 nM throughout.
As to `O=c1onc(CN2CCOc3ccccc32)n1CC1CCCCC1` [Example 230, 4-(cyclohexylmethyl)-3-(3,4-dihydro-2H-1,4-benzoxazin-4-ylmethyl)-4,5-dihydro-1,2,4-oxadiazol-5-one], the IC50 in experiment [1], in experiment [2] and in experiment [3] was under 200 nM in each case.
As to `O=c1onc(CN2CCOc3ccccc32)n1CC1CCC(F)(F)CC1` [Example 231, 4-[(4,4-difluorocyclohexyl)methyl]-3-(3,4-dihydro-2H-1,4-benzoxazin-4-ylmethyl)-4,5-dihydro-1,2,4-oxadiazol-5-one], the IC50 in experiment [1], in experiment [2] and in experiment [3] was under 200 nM in each case.
On to `O=c1onc(CN2CCCCC2)n1Cc1ccc(F)cc1` [Example 240, 4-[(4-fluorophenyl)methyl]-3-(piperidin-1-ylmethyl)-4,5-dihydro-1,2,4-oxadiazol-5-one], for which the IC50 in experiment [1] is 1000 to 10000 nM; in experiment [2] it was over 10000 nM; in experiment [3] it was over 10000 nM.
Regarding `O=c1onc(CN2CCCCC2)n1Cc1c(F)cccc1Cl` [Example 241, 4-[(2-chloro-6-fluorophenyl)methyl]-3-[(piperidin-1-yl)methyl]-1,2,4-oxadiazol-5(4H)-one], the concentration for half-maximal inhibition (IC50) is under 200 nM in experiment [1], 200 to 1000 nM in experiment [2] and 200 to 1000 nM in experiment [3].
Turning to `O=c1onc(CN2CCc3ccccc3C2)n1Cc1c(F)cccc1Cl` [Example 244, 4-[(2-chloro-6-fluorophenyl)methyl]-3-(1,2,3,4-tetrahydroisoquinolin-2-ylmethyl)-4,5-dihydro-1,2,4-oxadiazol-5-one], the IC50 is 200 to 1000 nM in experiment [1], 200 to 1000 nM in experiment [2] and 1000 to 10000 nM in experiment [3].
